Data from patent US10273222B2 (CELGENE QUANTICEL RESEARCH, INC., priority 2013, dated 2019).

Columns and labels:
Type in all cases: biochemical
Jarid1A = Jarid1A (Homo sapiens (Human), UniProt P29375); assay: Jarid1A in vitro enzyme inhibition assay (TR-FRET)
Excerpt: The enzymatic assay of Jarid1A activity is based upon Time Resolved-Fluorescence Resonance Energy Transfer (TR-FRET) detection.

Jarid1B = Jarid1B (Homo sapiens (Human), UniProt Q9UGL1); assay: Jarid1B in vitro enzyme inhibition assay (TR-FRET)
JMJD2C = JMJD2C (Homo sapiens (Human), UniProt Q9H3R0); assay: JMJD2C in vitro enzyme inhibition assay (TR-FRET)
FBXL10 = FBXL10 (Homo sapiens (Human), UniProt Q8NHM5); assay: FBXL10 in vitro enzyme inhibition assay (AlphaScreen)
Procedure: Reaction product was determined quantitatively by AlphaScreen detection after the addition of detection reagents anti-H3K36me1 antibody, AlphaScreen® Streptavidin-coated Donor beads, and AlphaScreen® Protein A Acceptor beads in 50 mM HEPES, pH7.3, 10 mM NaCl, 0.005% Brij35, 5 mM EDTA, 2 mg/ml BSA to final 10 μg/ml beads.
Plates were incubated at room temperature for 40 minutes, followed by addition of 3 μl of 50 μg/ml AlphaScreen® Streptavidin-coated Donor beads and AlphaScreen® Protein A Acceptor beads in 50 mM HEPES, pH7.3, 10 mM NaCl, 0.005% Brij35, 5 mM EDTA, 2 mg/ml BSA. Plates were read by EnVisionMultilabel Reader in AlphaScreen mode after a minimum of 2 hour or up to overnight incubation at room temperature. The AlphaScreen signal for each well was used to determine inhibition constant (IC50).

Sequence of Jarid1B (Q9UGL1 2-751): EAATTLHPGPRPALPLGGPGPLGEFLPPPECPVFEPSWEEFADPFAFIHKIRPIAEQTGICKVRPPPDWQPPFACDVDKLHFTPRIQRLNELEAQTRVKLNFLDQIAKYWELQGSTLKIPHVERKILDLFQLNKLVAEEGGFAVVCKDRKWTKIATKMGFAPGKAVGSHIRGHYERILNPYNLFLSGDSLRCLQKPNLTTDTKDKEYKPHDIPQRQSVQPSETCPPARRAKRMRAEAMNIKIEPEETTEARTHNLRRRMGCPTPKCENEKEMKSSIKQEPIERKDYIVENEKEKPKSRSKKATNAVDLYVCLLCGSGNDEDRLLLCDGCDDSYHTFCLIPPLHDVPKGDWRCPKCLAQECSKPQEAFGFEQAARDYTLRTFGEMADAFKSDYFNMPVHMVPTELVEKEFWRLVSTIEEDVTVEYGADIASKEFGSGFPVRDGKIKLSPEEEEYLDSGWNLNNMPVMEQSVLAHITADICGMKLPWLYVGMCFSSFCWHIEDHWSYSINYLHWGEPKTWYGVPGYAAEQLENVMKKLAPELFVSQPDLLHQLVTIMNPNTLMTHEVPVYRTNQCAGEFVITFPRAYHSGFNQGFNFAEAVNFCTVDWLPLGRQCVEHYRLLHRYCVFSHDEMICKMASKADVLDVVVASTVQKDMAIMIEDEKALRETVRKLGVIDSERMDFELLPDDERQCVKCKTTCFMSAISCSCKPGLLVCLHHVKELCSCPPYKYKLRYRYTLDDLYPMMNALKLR
Sequence of JMJD2C (Q9H3R0 2-372): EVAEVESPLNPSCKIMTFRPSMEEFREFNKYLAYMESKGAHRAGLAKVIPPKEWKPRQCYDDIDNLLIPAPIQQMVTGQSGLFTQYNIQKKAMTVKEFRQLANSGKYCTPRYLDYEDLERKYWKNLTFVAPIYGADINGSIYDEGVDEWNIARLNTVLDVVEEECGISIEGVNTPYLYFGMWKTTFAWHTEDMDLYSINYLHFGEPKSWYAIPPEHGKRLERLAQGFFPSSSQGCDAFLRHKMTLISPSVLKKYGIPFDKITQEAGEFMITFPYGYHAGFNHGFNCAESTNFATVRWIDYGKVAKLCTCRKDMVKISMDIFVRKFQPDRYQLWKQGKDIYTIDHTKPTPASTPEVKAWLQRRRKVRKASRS
Sequence of FBXL10 (Q8NHM5 1-650): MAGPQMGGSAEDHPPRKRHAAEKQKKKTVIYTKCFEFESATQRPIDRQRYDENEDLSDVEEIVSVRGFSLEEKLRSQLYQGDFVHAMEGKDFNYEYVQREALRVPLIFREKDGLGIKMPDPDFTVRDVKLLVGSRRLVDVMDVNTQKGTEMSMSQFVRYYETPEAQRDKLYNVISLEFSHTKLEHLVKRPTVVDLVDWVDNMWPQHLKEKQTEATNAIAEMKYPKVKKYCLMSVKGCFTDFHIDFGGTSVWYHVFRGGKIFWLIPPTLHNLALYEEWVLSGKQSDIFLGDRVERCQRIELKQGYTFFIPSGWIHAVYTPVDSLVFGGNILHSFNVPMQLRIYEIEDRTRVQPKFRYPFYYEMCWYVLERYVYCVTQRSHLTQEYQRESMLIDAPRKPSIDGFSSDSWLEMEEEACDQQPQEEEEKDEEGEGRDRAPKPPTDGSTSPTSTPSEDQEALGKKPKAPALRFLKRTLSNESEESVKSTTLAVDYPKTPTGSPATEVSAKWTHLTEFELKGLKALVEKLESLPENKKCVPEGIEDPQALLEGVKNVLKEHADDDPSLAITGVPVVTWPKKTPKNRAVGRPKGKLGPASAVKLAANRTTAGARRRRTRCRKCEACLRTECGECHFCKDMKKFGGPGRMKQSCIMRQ
Sequence of Jarid1A (P29375 1-1090): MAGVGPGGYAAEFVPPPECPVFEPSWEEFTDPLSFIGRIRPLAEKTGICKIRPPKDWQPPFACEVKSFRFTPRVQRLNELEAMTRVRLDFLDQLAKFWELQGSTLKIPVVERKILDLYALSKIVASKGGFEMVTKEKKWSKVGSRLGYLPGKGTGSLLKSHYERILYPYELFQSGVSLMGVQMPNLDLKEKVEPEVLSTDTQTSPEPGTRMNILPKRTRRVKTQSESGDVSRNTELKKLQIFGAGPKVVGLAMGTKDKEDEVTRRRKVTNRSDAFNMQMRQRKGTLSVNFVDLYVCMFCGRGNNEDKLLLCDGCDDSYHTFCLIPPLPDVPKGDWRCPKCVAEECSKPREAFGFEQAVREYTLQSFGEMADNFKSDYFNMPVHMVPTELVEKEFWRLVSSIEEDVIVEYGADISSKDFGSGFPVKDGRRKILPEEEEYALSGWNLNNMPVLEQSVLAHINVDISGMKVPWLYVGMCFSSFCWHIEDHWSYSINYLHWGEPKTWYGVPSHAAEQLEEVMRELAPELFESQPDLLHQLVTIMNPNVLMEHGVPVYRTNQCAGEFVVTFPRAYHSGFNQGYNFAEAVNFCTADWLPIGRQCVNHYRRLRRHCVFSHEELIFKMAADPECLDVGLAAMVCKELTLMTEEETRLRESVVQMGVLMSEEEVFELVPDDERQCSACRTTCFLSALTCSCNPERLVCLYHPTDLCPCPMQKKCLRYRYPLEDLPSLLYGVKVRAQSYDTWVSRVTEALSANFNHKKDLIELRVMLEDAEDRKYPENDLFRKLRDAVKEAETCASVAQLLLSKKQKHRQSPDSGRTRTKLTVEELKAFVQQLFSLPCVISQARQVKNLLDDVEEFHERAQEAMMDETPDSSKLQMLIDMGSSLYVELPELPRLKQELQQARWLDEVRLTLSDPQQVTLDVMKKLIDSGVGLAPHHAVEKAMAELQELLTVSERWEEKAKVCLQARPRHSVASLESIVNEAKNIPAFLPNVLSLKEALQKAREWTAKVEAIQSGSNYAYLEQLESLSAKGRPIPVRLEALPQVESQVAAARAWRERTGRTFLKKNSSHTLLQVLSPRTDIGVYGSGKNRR

Row | IC50 (Jarid1A) [nM] | IC50 (Jarid1B) [nM] | IC50 (JMJD2C) [nM] | IC50 (FBXL10) [nM] | SMILES
1 | ≤ 100 | ≤ 100 | ≤ 100 | ≤ 100 | O=C(O)c1ccnc(-c2cn(CCNCc3ccc(F)cc3)cn2)c1 [Example 74, 2-[1-[2-[(4-fluorophenyl)methylamino]ethyl]imidazol-4-yl]pyridine-4-carboxylic acid]
2 | ≤ 100 | ≤ 100 | 100 to 1000 | 100 to 1000 | Cn1cnc(-c2cc(C(=O)O)ccn2)c1-c1ccc(Cl)c(Cl)c1 [Example 28, 2-[5-(3,4-dichlorophenyl)-1-methyl-1H-imidazol-4-yl]pyridine-4-carboxylic acid]
3 | ≤ 100 | ≤ 100 | 100 to 1000 | ≤ 100 | O=C(O)c1ccnc(-c2cn(Cc3ccccn3)cn2)c1 [Example 47, 2-[1-(pyridin-2-ylmethyl)-1H-imidazol-4-yl]pyridine-4-carboxylic acid]
4 | ≤ 100 | ≤ 100 | 1000 to 10000 | 100 to 1000 | Cn1cnc(-c2cc(C(=O)O)ccn2)c1-c1ccc(C(F)(F)F)cc1 [Example 6, 2-{1-methyl-5-[4-(trifluoromethyl)phenyl]-1H-imidazol-4-yl}pyridine-4-carboxylic acid]
5 | ≤ 100 | ≤ 100 | 100 to 1000 | ≤ 100 | C#Cc1ccc(-c2c(-c3cc(C(=O)O)ccn3)ncn2C)cc1 [Example 21, 2-[5-(4-ethynylphenyl)-1-methyl-1H-imidazol-4-yl]pyridine-4-carboxylic acid]
6 | 100 to 1000 | 100 to 1000 | 1000 to 10000 | 100 to 1000 | CCOc1ccc(-c2c(-c3cc(C(=O)O)ccn3)ncn2C)cc1 [Example 14, 2-[5-(4-ethoxyphenyl)-1-methyl-1H-imidazol-4-yl]pyridine-4-carboxylic acid]
7 | ≤ 100 | ≤ 100 | ≤ 100 | ≤ 100 | O=C(O)c1ccnc(-c2cn(CCN3Cc4ccc(C(F)(F)F)cc4C3)cn2)c1 [Example 84, 2-[1-[2-[5-(trifluoromethyl)-1,3-dihydroisoindol-2-yl]ethyl]imidazol-4-yl]pyridine-4-carboxylic acid]
8 | ≤ 100 | ≤ 100 | ≤ 100 | ≤ 100 | CN1CCOC(Cn2cnc(-c3cc(C(=O)O)ccn3)c2)C1 (stereo not drawn) [Example 54, 2-{1-[(4-methylmorpholin-2-yl)methyl]-1H-imidazol-4-yl}pyridine-4-carboxylic acid]
9 | ≤ 100 | ≤ 100 | 100 to 1000 | ≤ 100 | O=C(O)c1ccnc(-c2cn(CCN(Cc3ccc(Cl)cc3)C3CC3)cn2)c1 [Example 85, 2-[1-[2-[(4-chlorophenyl)methyl-cyclopropylamino]ethyl]imidazol-4-yl]pyridine-4-carboxylic acid]
10 | ≤ 100 | ≤ 100 | 100 to 1000 | ≤ 100 | O=C(O)c1ccnc(-c2cn(CC3CCCCC3)cn2)c1 [Example 115, 2-[1-(cyclohexylmethyl)imidazol-4-yl]pyridine-4-carboxylic acid]
11 | ≤ 100 | ≤ 100 | 100 to 1000 | ≤ 100 | O=C(O)c1ccnc(-c2cn(CCC3CCCCC3)cn2)c1 [Example 114, 2-[1-(2-cyclohexylethyl)imidazol-4-yl]pyridine-4-carboxylic acid]
12 | ≤ 100 | ≤ 100 | 100 to 1000 | ≤ 100 | O=C(O)c1ccnc(-c2cn(CC3CCCO3)cn2)c1 (stereo not drawn) [Example 51, 2-[1-(tetrahydrofuran-2-ylmethyl)-1H-imidazol-4-yl]pyridine-4-carboxylic acid]
13 | ≤ 100 | ≤ 100 | ≤ 100 | 100 to 1000 | CN1CCC(n2cnc(-c3cc(C(=O)O)ccn3)c2)CC1 [Example 49, 2-[1-(1-methylpiperidin-4-yl)-1H-imidazol-4-yl]pyridine-4-carboxylic acid]
14 | ≤ 100 | ≤ 100 | ≤ 100 | ≤ 100 | CN(CCn1cnc(-c2cc(C(=O)O)ccn2)c1)Cc1ccccc1 [Example 57, 2-(1-{2-[benzyl(methyl)amino]ethyl}-1H-imidazol-4-yl)pyridine-4-carboxylic acid]
15 | ≤ 100 | ≤ 100 | 1000 to 10000 | 100 to 1000 | CCOc1cc(Cl)ccc1-c1c(-c2cc(C(=O)O)ccn2)ncn1C [Example 32, 2-[5-(4-chloro-2-ethoxyphenyl)-1-methyl-1H-imidazol-4-yl]pyridine-4-carboxylic acid]
16 | ≤ 100 | ≤ 100 | 1000 to 10000 | 100 to 1000 | CCc1ccc(-c2c(-c3cc(C(=O)O)ccn3)ncn2C)cc1 [Example 5, 2-[5-(4-ethylphenyl)-1-methyl-1H-imidazol-4-yl]pyridine-4-carboxylic acid]
17 | ≤ 100 | ≤ 100 | ≤ 100 | ≤ 100 | COc1ccccc1CNCCn1cnc(-c2cc(C(=O)O)ccn2)c1 [Example 77, 2-[1-[2-[(2-methoxyphenyl)methylamino]ethyl]imidazol-4-yl]pyridine-4-carboxylic acid]
18 | ≤ 100 | ≤ 100 | ≤ 100 | 100 to 1000 | O=C(O)c1ccnc(-c2cn(CC3CCCN3)cn2)c1 (stereo not drawn) [Example 53, 2-[1-(pyrrolidin-2-ylmethyl)-1H-imidazol-4-yl]pyridine-4-carboxylic acid]
19 | ≤ 100 | ≤ 100 | ≤ 100 | ≤ 100 | CN(C)CCn1cnc(-c2cc(C(=O)O)ccn2)c1-c1ccc(Cl)c(F)c1 [Example 39, 2-{5-(4-chloro-3-fluorophenyl)-1-[2-(dimethylamino)ethyl]-1H-imidazol-4-yl}pyridine-4-carboxylic acid]
20 | ≤ 100 | ≤ 100 | 100 to 1000 | ≤ 100 | COc1cc(-c2c(-c3cc(C(=O)O)ccn3)ncn2C)ccc1Cl [Example 30, 2-[5-(4-chloro-3-methoxyphenyl)-1-methyl-1H-imidazol-4-yl]pyridine-4-carboxylic acid]
21 | 100 to 1000 | 100 to 1000 | 1000 to 10000 | 100 to 1000 | Cn1cnc(-c2cc(C(=O)O)ccn2)c1-c1cccc(CO)c1 [Example 11, 2-{5-[3-(hydroxymethyl)phenyl]-1-methyl-1H-imidazol-4-yl}pyridine-4-carboxylic acid]
22 | ≤ 100 | ≤ 100 | 1000 to 10000 | ≤ 100 | COCCn1cnc(-c2cc(C(=O)O)ccn2)c1-c1ccc(Cl)c(F)c1 [Example 37, 2-[5-(4-chloro-3-fluorophenyl)-1-(2-methoxyethyl)-1H-imidazol-4-yl]pyridine-4-carboxylic acid]
23 | ≤ 100 | ≤ 100 | 100 to 1000 | ≤ 100 | Cn1cnc(-c2cc(C(=O)O)ccn2)c1-c1ccc(Cl)cc1Cl [Example 33, 2-[5-(2,4-dichlorophenyl)-1-methyl-1H-imidazol-4-yl]pyridine-4-carboxylic acid]
24 | ≤ 100 | ≤ 100 | 100 to 1000 | ≤ 100 | Cn1cnc(-c2cc(C(=O)O)ccn2)c1-c1cccc(F)c1 [Example 24, 2-[5-(3-fluorophenyl)-1-methyl-1H-imidazol-4-yl]pyridine-4-carboxylic acid]
25 | ≤ 100 | ≤ 100 | ≤ 100 | ≤ 100 | O=C(O)c1ccnc(-c2cn(CCN3Cc4ccccc4C3)cn2)c1 [Example 76, 2-[1-[2-(1,3-dihydroisoindol-2-yl)ethyl]imidazol-4-yl]pyridine-4-carboxylic acid]
26 | ≤ 100 | ≤ 100 | ≤ 100 | 100 to 1000 | O=C(O)c1ccnc(-c2cn(C3CCNC3)cn2)c1 (stereo not drawn) [Example 52, 2-[1-(pyrrolidin-3-yl)-1H-imidazol-4-yl]pyridine-4-carboxylic acid]
27 | ≤ 100 | ≤ 100 | ≤ 100 | ≤ 100 | O=C(O)c1ccnc(-c2cn(CCN3Cc4ccc(Cl)cc4C3)cn2)c1 [Example 82, 2-[1-[2-(5-chloro-1,3-dihydroisoindol-2-yl)ethyl]imidazol-4-yl]pyridine-4-carboxylic acid]
28 | 100 to 1000 | 100 to 1000 | 1000 to 10000 | 100 to 1000 | O=C(O)c1ccnc(-c2cn(CCn3cccn3)cn2)c1 [Example 46, 2-{1-[2-(1H-pyrazol-1-yl)ethyl]-1H-imidazol-4-yl}pyridine-4-carboxylic acid]
29 | ≤ 100 | ≤ 100 | ≤ 100 | ≤ 100 | N#Cc1cccc2c1CN(CCn1cnc(-c3cc(C(=O)O)ccn3)c1)C2 [Example 83, 2-[1-[2-(4-cyano-1,3-dihydroisoindol-2-yl)ethyl]imidazol-4-yl]pyridine-4-carboxylic acid]
30 | ≤ 100 | ≤ 100 | 1000 to 10000 | 100 to 1000 | Cc1ccc(-c2c(-c3cc(C(=O)O)ccn3)ncn2C)cc1 [Example 4, 2-[1-methyl-5-(4-methylphenyl)-1H-imidazol-4-yl]pyridine-4-carboxylic acid]
